Results from ChEMBL document CHEMBL4610066, “Phytol, a Chlorophyll Component, Produces Antihyperalgesic, Anti-inflammatory, and Antiarthritic Effects: Possible NFκB Pathway Involvement and Reduced Levels of the Proinflammatory Cytokines TNF-α and IL-6” (J Nat Prod, 2020).
Active and inactive are the calls of the source.

Key:
[1] = Neurotoxicity in complete freund's adjuvant-induced albino Swiss mouse model of arthritis assessed as induction of myorelaxant effect by measuring change in muscle force at 50 mg/kg, po pretreated for 1 hr followed by CFA stimulation and measured every other day for 10 days by grip strength meter method; assay type: toxicity, organism-based; conditions: in vivo, 240 h
Mus musculus [2] = assay: Antiinflammatory activity in complete freund's adjuvant-induced albino Swiss mouse model of arthritis assessed as reduction in TNFalpha production in synovial fluid at 50 mg/kg, po pretreated for 1 hr followed by CFA stimulation and measured after 3 days; assay type: functional, organism-based
Mus musculus [3] = assay: Antiinflammatory activity in complete freund's adjuvant-induced albino Swiss mouse model of arthritis assessed as reduction in IL6 production in synovial fluid at 50 mg/kg, po pretreated for 1 hr followed by CFA stimulation and measured after 3 days; assay type: functional, organism-based
Mus musculus [4] = assay: Antiinflammatory activity in complete freund's adjuvant-induced albino Swiss mouse model of arthritis assessed as reduction in IL10 production in synovial fluid at 50 mg/kg, po pretreated for 1 hr followed by CFA stimulation and measured after 3 days; assay type: functional, organism-based
Mus musculus [5] = assay: Antiinflammatory activity in complete freund's adjuvant-induced albino Swiss mouse model of arthritis assessed as reduction in MPO activity in synovial fluid at 50 mg/kg, po pretreated for 1 hr followed by CFA stimulation and measured after 3 days; assay type: functional, organism-based
Mus musculus [6] = assay: Antiinflammatory activity in complete freund's adjuvant-induced albino Swiss mouse model of arthritis assessed as reduction in paw edema at 50 mg/kg, po pretreated for 1 hr followed by CFA stimulation and measured up to 6 hrs by plethysmometric method relative to control; assay type: functional; design: scale not given: the % may be the effect or the level left
Mus musculus [7] = assay: Effect on ERK1/2 signaling in complete freund's adjuvant-induced albino Swiss mouse model of arthritis at 50 mg/kg, po pretreated for 1 hr followed by CFA stimulation and measured after 3 days by Western blot analysis; assay type: functional, organism-based
Mus musculus [8] = assay: Analgesic activity in formalin-induced albino Swiss mouse model of nociception assessed as reduction in time spent in paw licking during inflammatory phase at 25 to 50 mg/kg, po pretreated for 1 hr followed by formalin stimulation and measured after 15 to 30 mins by formalin test; assay type: functional, organism-based
Mus musculus [9] = assay: Antiinflammatory activity in complete freund's adjuvant-induced albino Swiss mouse model of arthritis assessed as reduction in leukocyte content in synovial fluid at 50 mg/kg, po pretreated for 1 hr followed by CFA stimulation and measured after 3 days; assay type: functional, organism-based
Mus musculus [10] = assay: Antiinflammatory activity in complete freund's adjuvant-induced albino Swiss mouse model of arthritis assessed as reduction in paw volume at 25 to 50 mg/kg, po pretreated for 1 hr followed by CFA stimulation and measured after 2 hrs by plethysmometric method; assay type: functional, organism-based
Mus musculus [11] = assay: Antiinflammatory activity in complete freund's adjuvant-induced albino Swiss mouse model of arthritis assessed as reduction in edema AUC at 50 mg/kg, po administered once daily for 10 days measured every other day during compound dosing relative to control; assay type: functional; design: scale not given: the % may be the effect or the level left
Mus musculus [12] = assay: Antiinflammatory activity in complete freund's adjuvant-induced albino Swiss mouse model of arthritis assessed as reduction in IL6 production in spinal cord at 50 mg/kg, po pretreated for 1 hr followed by CFA stimulation and measured after 3 days; assay type: functional, organism-based
Mus musculus [13] = assay: In vivo inhibition of NFkappaB phosphorylation at ser536 residue in complete freund's adjuvant-induced albino Swiss mouse model of arthritis at 50 mg/kg, po pretreated for 1 hr followed by CFA stimulation and measured after 3 days by Western blot analysis; assay type: functional, organism-based
Mus musculus [14] = assay: Antiinflammatory activity in complete freund's adjuvant-induced albino Swiss mouse model of arthritis assessed as suppression of CFA-induced increase in total NFkappaB level at 50 mg/kg, po pretreated for 1 hr followed by CFA stimulation and measured after 3 days by Western blot analysis; assay type: functional, organism-based
Mus musculus [15] = assay: Antiinflammatory activity in complete freund's adjuvant-induced albino Swiss mouse model of arthritis assessed as reduction in joint swelling at 50 mg/kg, po administered once daily for 10 days measured every other day during compound dosing; assay type: functional, organism-based
[16] = Neurotoxicity in complete freund's adjuvant-induced albino Swiss mouse model of arthritis assessed as motor coordination impairment at 50 mg/kg, po pretreated for 1 hr followed by CFA stimulation and measured up to 240 mins by rotarod test; assay type: toxicity, organism-based; conditions: in vivo, 4 h
Mus musculus [17] = assay: Antiinflammatory activity in complete freund's adjuvant-induced albino Swiss mouse model of arthritis assessed as reduction in paw edema AUC at 25 mg/kg, po pretreated for 1 hr followed by CFA stimulation and measured up to 6 hrs by plethysmometric method relative to control; assay type: functional; design: scale not given: the % may be the effect or the level left
Mus musculus [18] = assay: Antiinflammatory activity in complete freund's adjuvant-induced albino Swiss mouse model of arthritis assessed as reduction in COX2 production in spinal cord at 50 mg/kg, po pretreated for 1 hr followed by CFA stimulation and measured after 3 days by Western blot analysis; assay type: functional, organism-based
Mus musculus [19] = assay: Analgesic activity in complete freund's adjuvant-induced albino Swiss mouse model of hyperalgesia assessed as increase in paw withdrawal threshold at 50 mg/kg, po pretreated for 1 hr followed by CFA stimulation and measured after 7 hrs by analgesimetric method; assay type: functional, organism-based
Mus musculus [20] = assay: Analgesic activity in albino Swiss mouse assessed as increase in reaction time at 25 mg/kg, po measured after 60 to 90 mins by hot plate test; assay type: functional, organism-based
Mus musculus [21] = assay: Analgesic activity in albino Swiss mouse assessed as increase in reaction time at 25 mg/kg, po measured after 120 to 240 mins by hot plate test; assay type: functional, organism-based
Mus musculus [22] = assay: In vivo inhibition of MAPK pathway in complete freund's adjuvant-induced albino Swiss mouse model of arthritis assessed as reduction in phosphorylated p38 MAPK to total p38 MAPK ratio in spinal cord at 50 mg/kg, po pretreated for 1 hr followed by CFA stimulation and measured after 3 days by Western blot analysis; assay type: functional, organism-based
Mus musculus [23] = assay: Analgesic activity in albino Swiss mouse assessed as increase in reaction time at 50 mg/kg, po measured after 60 to 240 mins by hot plate test; assay type: functional, organism-based
Mus musculus [24] = assay: Antiinflammatory activity in complete freund's adjuvant-induced albino Swiss mouse model of arthritis assessed as reduction in paw edema AUC at 50 mg/kg, po pretreated for 1 hr followed by CFA stimulation and measured up to 6 hrs by plethysmometric method relative to control; assay type: functional; design: scale not given: the % may be the effect or the level left
Mus musculus [25] = assay: Analgesic activity in complete freund's adjuvant-induced albino Swiss mouse model of hyperalgesia assessed as increase in paw withdrawal threshold at 50 mg/kg, po administered daily and measured every other for 10 days and on day 21 and 28; assay type: functional, organism-based
Mus musculus [26] = assay: Analgesic activity in formalin-induced albino Swiss mouse model of nociception assessed as reduction in time spent in paw licking during neurogenic phase at 50 mg/kg, po pretreated for 1 hr followed by formalin stimulation and measured up to 5 mins by formalin test; assay type: functional, organism-based

In the case of `C/C(=C\CO)CCC[C@H](C)CCC[C@H](C)CCCC(C)C` [TRANS-PHYTOL], the Activity [1] is reported as “Non-Toxic”, the Activity (Mus musculus [2]) is reported as “Active” and the Activity (Mus musculus [3]) is reported as “Active”. The Activity (Mus musculus [4]) was “inactive”, the Activity (Mus musculus [5]) was “Active” and the Activity (Mus musculus [6]) was 45%. The Activity (Mus musculus [7]) was “inactive”, the Activity (Mus musculus [8]) was “Active” and the Activity (Mus musculus [9]) was “Active”. The Activity (Mus musculus [10]) was “Active”, the Activity (Mus musculus [11]) was 46% and the Activity (Mus musculus [12]) was “Active”. The inhibition (Mus musculus [13]) was “Active”, the Activity (Mus musculus [14]) was “Active” and the Activity (Mus musculus [15]) was “Active”. The Activity [16] was “Non-Toxic”, the Activity (Mus musculus [17]) was 18% and the Activity (Mus musculus [18]) was “Active”. For the same molecule, the Activity (Mus musculus [19]) was “Active”, the Activity (Mus musculus [20]) was “Active” and the Activity (Mus musculus [21]) was “inactive”. For the same molecule, the inhibition (Mus musculus [22]) was “Active”, the Activity (Mus musculus [23]) was “Active” and the Activity (Mus musculus [24]) was 45%. The Activity (Mus musculus [25]) was “Active” and the Activity (Mus musculus [26]) was “Active”.
